Data taken from patent US8282909B2, “Pharmaceutical composition for topical application of poorly soluble compounds” (Intendis GmbH, priority 2007, dated 2012).

Assay: Solubility of the active substance in solvents and vehicles
Assay type: physicochemical
Source text: Topically administered active substances are mainly used to treat the redness, swelling, itching and discomfort of psoriasis, atopic dermatitis and other pathologies of the skin. […] Glucocorticosteroids, steroids, calcineurin inhibitors, vitamin D analoques, retinoids, immunosuppressants, antimycotics, antiinfectives, estrogens, androgens, fumaric acid esters are typical drug classes for topical administration with such low water solubility. Other examples for such poorly soluble compounds are provided e.g. in WO 03/082827 or WO 2006/050998. One example is the non-steroidal active substance having the chemical name (R)-1,1,1-Trifluoro-4-(5-fluoro-2,3-dihydrobenzofuran-7-yl)-4-methyl-2-{[(2-methyl-5-quinolyl)amino]methyl}pentan-2-ol, the empirical formula of which is C25H26F4N2O2, having a molecular weight of 462.5. This is the compound according to example 1 of WO 2006/050998 (hereinafter Ex1/998).

With `Cc1ccc2c(NC[C@](O)(CC(C)(C)c3cc(F)cc4c3OCC4)C(F)(F)F)cccc2n1` [Ex1/998, (R)-1,1,1-Trifluoro-4-(5-fluoro-2,3-dihydrobenzofuran-7-yl)-4-methyl-2-{[(2-methyl-5-quinolyl)amino]methyl}pentan-2-ol] the “solubility in ethyl alcohol” value (ethyl alcohol) was “moderately soluble”, the solubility in hexane (hexane) was “only slightly soluble” and the “solubility in standard cream and ointment vehicles” value (vehicles for topical administration, such as petrolatum and mineral oils) was “very poor solubility”. For the same compound, the solubility in water (water) was “insoluble”.
